Values joined by “and” are separate entries in the source; they are usually repeats but may differ in a detail not shown here. Equal entries are not always repeated.
Columns and labels:
[1] = test system: human female patients diagnosed as having adenomyosis; assay: human clinical trial in adenomyosis (single-patient longitudinal case study and multi-patient analysis, n = 6); format: in vivo
Source text: This examples describes the results of a human clinical trial conducted to evaluate the ability of a GnRH antagonist, 3-[2-fluoro-5-(2,3-difluoro-6-methoxybenzyloxy)4-methoxyphenyl]-2,4-dioxo-1,2,3,4-tetrahydrothieno [3,4d]pyrimidine-5-carboxylic acid (represented by formula (VI)), or a pharmaceutically acceptable salt thereof, to treat adenomyosis, an estrogen-dependent disease, in human patients diagnosed as having this condition.
One aim of this study was to investigate the ability of the GnRH antagonist to maintain its therapeutic effects despite being administered to patients in a progressively lower dosage throughout the trial. To this end, the patients treated in this study was first administered the GnRH antagonist of formula (VI) in an amount of 200 mg/day during an initial 12-week period. The GnRH antagonist was then administered to the patients in a reduced amount of 100 mg/day during a subsequent 12-week period. The patients' responsiveness to the GnRH antagonist was monitored throughout the study.
In addition to assessing the effectiveness of the GnRH antagonist when administered at lower doses, another aim of this study was to evaluate the ability of the GnRH antagonist to sustain its therapeutic effects even after treatment was ceased altogether. Accordingly, after being periodically administered the GnRH antagonist of formula (VI) over the course of 24 weeks, first in an amount of 200 mg/day and then in an amount of 100 mg/day, treatment with the GnRH antagonist was halted entirely. The patients were then monitored during a post-treatment follow-up period to analyze the extent to which the therapeutic effects of the compound were sustained.
To test the effects of compound (VI), a total of n=6 human female patients diagnosed as having adenomyosis were administered compound (VI) in accordance with the dosing schedule described above. One of these patients in particular was closely monitored beginning well before their treatment with compound (VI) was initiated. The specific results of this patient's therapy are described in the section entitled “Single-Patient Longitudinal Case Study,” below. The cumulative set of results for all 6 patients is reported in the section entitled “Multi-Patient Analysis,” below.
As part of the clinical trial, a case study was conducted in which a single patient of reproductive age having clinically diagnosed adenomyosis was monitored during the course of treatment with compound (VI). The patient was nulliparous. Two years before the study began, the patient presented with heavy menstrual bleeding, pelvic pain, and dysmenorrhea. […] Their gynecologist prescribed ulipristal acetate (UPA), a selective progesterone receptor modulator (SPRM), to be administered in an amount of 5 mg/day over the course of a treatment period lasting three months.
The patient was then recommended for treatment with the GnRH antagonist represented by formula (VI) herein. Accordingly, the patient was orally administered compound (VI) in an amount of 200 mg/day for three months. Following this initial three-month period, the patient was orally administered compound (VI) in a reduced amount of 100 mg/day for a subsequent three-period. During both treatment periods, compound (VI) was administered to the patient in the form of a choline salt.
The patient was recommended for once-daily treatment with the GnRH antagonist of formula (VI). Accordingly, the patient was administered the GnRH antagonist of formula (VI) in an amount of 200 mg/day during a first treatment period, which lasted three months. At the conclusion of the first treatment period, the patient began a second treatment period in which they were administered compound (VI) in a reduced amount of 100 mg/day for three months. During both treatment periods, compound (VI) was administered to the patient in the form of a choline salt. […]

[2] = test system: human female patients diagnosed as having uterine fibroids; assay: PRIMROSE 1 Phase 3 placebo-controlled trial in uterine fibroids; format: in vivo; conditions: for proportion of patients with menstrual blood loss ≤80 mL and ≥50% reduction from baseline: 24 weeks
Source text: This example describes the results of two Phase 3, double-blind, randomized, placebo-controlled, multicenter, human clinical trials undertaken to evaluate the efficacy of the GnRH antagonist represented by formula (VI) in a series of patients suffering from uterine fibroids. In these trials, referred to herein as “PRIMROSE 1” and “PRIMROSE 2,” human female patients diagnosed as having uterine fibroids were periodically administered compound (VI), 3-[2-fluoro-5-(2,3-difluoro-6-methoxybenzyloxy)4-methoxyphenyl]-2,4-dioxo-1,2,3,4-tetrahydrothieno [3,4d]pyrimidine-5-carboxylic acid, in the form of a choline salt over the course of a 12-month treatment period. Patients were administered compound (VI) once daily in an amount of either 100 mg or 200 mg. Patients receiving compound (VI) in a daily amount of 200 mg also received once daily hormonal add-back therapy (ABT), which consisted of […] of β17-estradiol (E2) per day and 0.5 mg of norethindrone acetate (NETA) per day.
The PRIMROSE 1 study, conducted in the United States, enrolled 526 women. The PRIMROSE 2 study, conducted in the United States and Europe, enrolled 535 women.
Patients were randomized to one of several cohorts: (i) placebo, (ii) 100 mg/day of compound (VI), or (iii) 200 mg/day of compound (VI). Patients receiving 200 mg/day of compound (VI) also received once-daily ABT containing 1.0 mg E2 and 0.5 mg NETA.
Patients were assessed for uterine fibroid symptomology at baseline, after 24 weeks of treatment, and again after 52 weeks of treatment. […] Patients were also assessed in order to determine the number of days of uterine bleeding during their last 28-day interval prior to week 24 of treatment with placebo or compound (VI).
Pain levels were measured using a Verbal Rating Score (VRS), as described herein. Patients were also assessed to determine the proportion that reported an improvement in quality of life using the Uterine Fibroids Symptoms and Health-Related Quality of Life questionnaire.
To evaluate the safety of compound (VI), patients' bone mineral density levels were measured at baseline and at various timepoints during the studies.

[3] = n = 6, after 12 weeks, 200 mg/day
[4] = single patient, after 24 weeks (200 mg/day 12 weeks, then 100 mg/day 12 weeks)

Structure (SMILES): COc1cc(F)c(-n2c(=O)[nH]c3csc(C(=O)O)c3c2=O)cc1OCc1c(OC)ccc(F)c1F [Compound (VI), 3-[2-fluoro-5-(2,3-difluoro-6-methoxybenzyloxy)4-methoxyphenyl]-2,4-dioxo-1,2,3,4-tetrahydrothieno [3,4d]pyrimidine-5-carboxylic acid]
- serum E2 ([1]; all n = 6 cases, first 12 weeks, 200 mg/day): less than 20 pg/ml
- anemia ([1]; all n = 6 patients, after 12 weeks, 200 mg/day): resolved
- adenomyotic lesions by MRI ([1]; all n = 6 patients, after 24 weeks): remained smaller than those observed at baseline
- BMD by DEXA ([1]; each of n = 6 patients, after 24 weeks): either minimal change or no change from baseline
- Week 24 Uterine Volume ([1]; individual patients 1-3, 200 mg/day 12 weeks, then 100 mg/day 12 weeks, MRI): 440 cm^3 and 75 cm^3 and 266 cm^3
- Week 12 Uterine Volume ([1]; individual patients 1-6, 200 mg/day oral for 12 weeks (choline salt), MRI): 81 cm^3 and 70 cm^3 (2×) and 290 cm^3 and 84 cm^3 and 138 cm^3
- side effects ([1]; n = 6, 200 mg/day treatment period, resolved after reduction to 100 mg/day): hot flushes and vaginal dryness
- menstrual status [1, 3]: sustained amenorrhea
- pelvic pain [1, 3]: substantially reduced
- mean uterine volume by MRI ([1]; n = 6, after 12 weeks, 200 mg/day, baseline mean 320 cm^3): 122 cm^3
- menstrual status ([1]; n = 6, weeks 13-24, 100 mg/day): remained in amenorrhea
- all of the remaining EHP-30 scales ([1]; single patient, after 24 weeks): 0
- endometrial thickness by vaginal ultrasound ([1]; single patient, after 24 weeks): 3 mm
- hemoglobin (Hb) level [1, 4]: 13.6 g/dL
- uterine volume by MRI [1, 4]: 440 cm^3
- menstrual status ([1]; single patient, after 24 weeks of treatment): still in amenorrhea
- EHP-30 scale for emotional well-being ([1]; single patient, after 24 weeks, baseline 58.3): 4.2
- uterine volume on clinical evaluation, equivalent weeks of gestation ([1]; single patient, after first 12 weeks, 200 mg/day, 16-17 weeks before treatment): 10 weeks of gestation
- uterine volume by MRI ([1]; single patient, after first 12 weeks, 200 mg/day, baseline approximately 875 cm^3): 290 cm^3
- concentration of E2 ([1]; single patient, after four weeks of 200 mg/day oral (choline salt), baseline 45 pg/mL): less than 20 pg/mL
- side effects (hot flushes, vaginal dryness) after dose reduction ([1]; single patient, after reduction to 100 mg/day): disappeared
- 5-scaled EHP-30 score ([1]; single patient, end of first 12 weeks, 200 mg/day): 0
- side effects ([1]; single patient, first treatment period, 200 mg/day): a few instances of hot flushes and vaginal dryness
- menstrual status ([1]; single patient, initial 12-week period, 200 mg once daily): remained in amenorrhea
- hemoglobin (Hb) level ([1]; single patient, week 12, 200 mg/day, baseline 10 g/dL): 12.2 g/dL
- E2 level ([1]; single patient, week 16, reduced dose 100 mg/day (weeks 13-24)): 38 pg/mL
- E2 level ([1]; single patient, week 20, reduced dose 100 mg/day (weeks 13-24)): 26 pg/mL
- E2 level ([1]; single patient, week 24, reduced dose 100 mg/day (weeks 13-24)): 52 pg/mL
- bone mineral density T-scores and Z-scores (femoral neck, lumbar spine), DEXA ([1]; single patient, week 24 versus baseline): unchanged
- p value: Improvement in quality of life, Change from baseline in quality of life (QoL) symptom severity score (LS mean) ([2]; 100 mg/day): p = 0.002
- p value: Improvement in quality of life, Change from baseline in quality of life (QoL) symptom severity score (LS mean) ([2]; 200 mg/day + once-daily ABT): p < 0.001
- proportion of patients with menstrual blood loss ≤80 mL and ≥50% reduction from baseline ([2]; 100 mg per day without ABT, p=0.003, placebo 35%): 56.4%
- proportion of patients with menstrual blood loss ≤80 mL and ≥50% reduction from baseline ([2]; 200 mg per day + ABT (1.0 mg E2 + 0.5 mg NETA), p<0.001, placebo 35%): 75.5%
- bone mineral density, lumbar spine ([2]; once-daily treatment, 24 and 52 weeks, FIG. 9): does not induce a substantial decrease in bone mineral density

— US20220305017A1, “COMPOSITIONS AND METHODS FOR THE TREATMENT OF ESTROGEN-DEPENDENT DISORDERS” (ObsEva S.A., priority 2019, published 2022)
